From patent US10456407B2, “Combination therapy for treating cancer” (Epizyme, Inc., priority 2015, dated 2019)
Where two headings read alike, the source gives them in different places.

Assays:
OCI-Ly19 cells = test: RT2 Glucocorticoid signaling PCR array, OCI-LY19 (Table 4a, printed OCT) cell line; assay type: cell-based; settings: vs DMSO; for ΔΔCT, AFF1: gene AFF1; for ΔΔCT, AMPD3: gene AMPD3; for ΔΔCT, ANXA4: gene ANXA4; for ΔΔCT, CEBPA: gene CEBPA; for ΔΔCT, CREB1: gene CREB1; for ΔΔCT, CREB3: gene CREB3; for ΔΔCT, GHRHR: gene GHRHR; for ΔΔCT, GOT1: gene GOT1; for ΔΔCT, PER1: gene PER1; for ΔΔCT, RGS2: gene RGS2; for ΔΔCT, SPSB1: gene SPSB1; for ΔΔCT, TBL1XR1: gene TBL1XR1; for ΔΔCT, TNF: gene TNF; for ΔΔCT, VLDLR: gene VLDLR
Excerpt: Expression levels of (A). Sestrin; (B). TNF and (C) GILZ normalized to DMSO controls for each cell line with the indicated single agent or combination.

WSU-DLCL2 cells = test system: WSU-DLCL2 cells
Procedure: (§1) After 3 days of co-treatment, cell viability was measured via ATP content using CellTiter-Glo®
(§2) Synergy quantification is performed using the Chou-Talalay method^3 for drug combination. The Combination Index (CI) equation offers a quantitative definition for additivity (CI=1), synergism (CI<1), and antagonism (CI>1). This equation used Fa values from a constant ratio of drug combination to determine CI values. […] These Fa-CI plots are generated using the Calcusyn software.
(§3) After 3 days of co-treatment (5 days for Toledo assays), cell viability was measured via ATP content using CellTiter-Glo® (Promega) and luminescence was detected using a SpectraMax M5 microplate reader (Molecular Devices).
as §2, with “Chou-Talalay method” for “Chou-Talalay method^3”, “drug combination (Ref 1).” for “drug combination.”, “used fractional effect (Fa)” for “used Fa”, “Calcusyn for Windows software (Ref2).” for “Calcusyn software.”
(§4) Dose responses were plotted using Graphpad Prism and either 50% or 60% inhibitory concentrations were interpolated from the dose response curves.

DOHH2 cells = settings: DOHH2 (WT EZH2 GCB); drug combined with Compound 44
Procedure: as §1, §2, §3
as §2, with “Chou-Talalay method” for “Chou-Talalay method^3”, “drug combination (Ref 1).” for “drug combination.”, “used fractional effect (Fa)” for “used Fa”, “Calcusyn for Windows software (Ref2).” for “Calcusyn software.”
as §4

Toledo cells = settings: Toledo (WT EZH2 ABC); drug combined with Compound 44
Procedure: as §1, §2, §3
as §2, with “Chou-Talalay method” for “Chou-Talalay method^3”, “drug combination (Ref 1).” for “drug combination.”, “used fractional effect (Fa)” for “used Fa”, “Calcusyn for Windows software (Ref2).” for “Calcusyn software.”
as §4

SU-DHL10 cells = test system: SU-DHL10 cells
Procedure: as §1, §2, §3
as §2, with “Chou-Talalay method” for “Chou-Talalay method^3”, “drug combination (Ref 1).” for “drug combination.”, “used fractional effect (Fa)” for “used Fa”, “Calcusyn for Windows software (Ref2).” for “Calcusyn software.”
as §4

H3K27 acetylation = settings: WSU-DLCL2, OCI-LY19, RL cells; 4 days
H3K27me3 = settings: 4 days
Procedure: Histones were extracted from tumor samples as described above. […] The plates were sealed and incubated overnight at 4° C. The following day, plates were washed 3× with 300 ul/well PBST (PBS+0.05% Tween 20; 10×PBST, KPL #51-14-02) on a Bio Tek plate washer. Plates were blocked with 300 ul/well of diluent (PBS+2% BSA+0.05% Tween 20), incubated at RT for 2 hours, and washed 3× with PBST. All antibodies were diluted in diluent. […] Plates were incubated for 90 min at RT and washed 3× with PBST. […] Plates were washed 4× with PBST. For detection, 100 ul/well of TMB substrate (BioFx Laboratories, #TMBS) was added and plates incubated in the dark at RT for 5 min. Reaction was stopped with 100 ul/well IN H2SO4 Absorbance at 450 nm was read on SpectaMax M5 Microplate reader.

Compound | ΔΔCT, AFF1 (OCI-Ly19 cells) | ΔΔCT, AMPD3 (OCI-Ly19 cells) | ΔΔCT, ANXA4 (OCI-Ly19 cells) | ΔΔCT, CEBPA (OCI-Ly19 cells) | ΔΔCT, CREB1 (OCI-Ly19 cells) | ΔΔCT, CREB3 (OCI-Ly19 cells) | ΔΔCT, GHRHR (OCI-Ly19 cells) | ΔΔCT, GOT1 (OCI-Ly19 cells) | ΔΔCT, PER1 (OCI-Ly19 cells) | ΔΔCT, RGS2 (OCI-Ly19 cells) | ΔΔCT, SPSB1 (OCI-Ly19 cells) | ΔΔCT, TBL1XR1 (OCI-Ly19 cells) | ΔΔCT, TNF (OCI-Ly19 cells) | ΔΔCT, VLDLR (OCI-Ly19 cells) | other results
CCN(c1cc(-c2ccc(CN3CCOCC3)cc2)cc(C(=O)NCc2c(C)cc(C)[nH]c2=O)c1C)C1CCOCC1 [Compound 44] | −0.008 | −0.654 | −0.154 | −2.891 | 0.006 | 0.057 | −4.040 | −0.084 | 0.674 | −0.968 | −0.097 | −0.043 | −0.600 | −0.280 | –
C[C@]12C=CC(=O)C=C1CC[C@@H]1[C@@H]2[C@@H](O)C[C@@]2(C)[C@H]1CC[C@]2(O)C(=O)CO [Prednisolone, prednisolone] | −0.304 | −0.109 | 0.189 | 0.031 | 0.060 | −0.156 | −2.603 | 0.094 | 0.263 | 0.390 | 0.387 | −0.234 | −0.773 | 0.081 | Summary of Combinations with Compound 44: potency enhanced (WSU-DLCL2 cells; WSU-DLCL2 (EZH2 mutant GCB), drug combined with Compound 44): potency enhanced 7x; growth inhibition by the drug by itself (WSU-DLCL2 cells; WSU-DLCL2, single agent): no sensitivity; Summary of Combinations with Compound 44: potency enhanced (DOHH2 cells): potency enhanced 2x; Summary of Combinations with Compound 44 (combination effect) (Toledo cells): no effect; Summary of Combinations with Compound 44: potency enhanced (SU-DHL10 cells; SU-DHL 10 (EZH2 mutant GCB), drug combined with Compound 44): potency enhanced 3x; growth inhibition by the drug by itself (SU-DHL10 cells; SU-DHL10, single agent): no sensitivity; H3K27 acetylation levels (H3K27 acetylation): not globally affected; effect on H3K27 trimethylation (H3K27me3) (H3K27me3; OCI-LY19 cells, at higher doses): modest increase; effect on H3K27 trimethylation (H3K27me3) (H3K27me3; RL cells): did not have any effect; effect on H3K27 trimethylation (H3K27me3) (H3K27me3; WSU-DLCL2 cells): did not have any effect
